For one assay, the target named is T1, F508del (Homo sapiens, UniProt P13569, DEL508-508).
T1 construct: expressed in transfected cells
T1 sequence (P13569 with tags, fused parts or gaps DEL508-508): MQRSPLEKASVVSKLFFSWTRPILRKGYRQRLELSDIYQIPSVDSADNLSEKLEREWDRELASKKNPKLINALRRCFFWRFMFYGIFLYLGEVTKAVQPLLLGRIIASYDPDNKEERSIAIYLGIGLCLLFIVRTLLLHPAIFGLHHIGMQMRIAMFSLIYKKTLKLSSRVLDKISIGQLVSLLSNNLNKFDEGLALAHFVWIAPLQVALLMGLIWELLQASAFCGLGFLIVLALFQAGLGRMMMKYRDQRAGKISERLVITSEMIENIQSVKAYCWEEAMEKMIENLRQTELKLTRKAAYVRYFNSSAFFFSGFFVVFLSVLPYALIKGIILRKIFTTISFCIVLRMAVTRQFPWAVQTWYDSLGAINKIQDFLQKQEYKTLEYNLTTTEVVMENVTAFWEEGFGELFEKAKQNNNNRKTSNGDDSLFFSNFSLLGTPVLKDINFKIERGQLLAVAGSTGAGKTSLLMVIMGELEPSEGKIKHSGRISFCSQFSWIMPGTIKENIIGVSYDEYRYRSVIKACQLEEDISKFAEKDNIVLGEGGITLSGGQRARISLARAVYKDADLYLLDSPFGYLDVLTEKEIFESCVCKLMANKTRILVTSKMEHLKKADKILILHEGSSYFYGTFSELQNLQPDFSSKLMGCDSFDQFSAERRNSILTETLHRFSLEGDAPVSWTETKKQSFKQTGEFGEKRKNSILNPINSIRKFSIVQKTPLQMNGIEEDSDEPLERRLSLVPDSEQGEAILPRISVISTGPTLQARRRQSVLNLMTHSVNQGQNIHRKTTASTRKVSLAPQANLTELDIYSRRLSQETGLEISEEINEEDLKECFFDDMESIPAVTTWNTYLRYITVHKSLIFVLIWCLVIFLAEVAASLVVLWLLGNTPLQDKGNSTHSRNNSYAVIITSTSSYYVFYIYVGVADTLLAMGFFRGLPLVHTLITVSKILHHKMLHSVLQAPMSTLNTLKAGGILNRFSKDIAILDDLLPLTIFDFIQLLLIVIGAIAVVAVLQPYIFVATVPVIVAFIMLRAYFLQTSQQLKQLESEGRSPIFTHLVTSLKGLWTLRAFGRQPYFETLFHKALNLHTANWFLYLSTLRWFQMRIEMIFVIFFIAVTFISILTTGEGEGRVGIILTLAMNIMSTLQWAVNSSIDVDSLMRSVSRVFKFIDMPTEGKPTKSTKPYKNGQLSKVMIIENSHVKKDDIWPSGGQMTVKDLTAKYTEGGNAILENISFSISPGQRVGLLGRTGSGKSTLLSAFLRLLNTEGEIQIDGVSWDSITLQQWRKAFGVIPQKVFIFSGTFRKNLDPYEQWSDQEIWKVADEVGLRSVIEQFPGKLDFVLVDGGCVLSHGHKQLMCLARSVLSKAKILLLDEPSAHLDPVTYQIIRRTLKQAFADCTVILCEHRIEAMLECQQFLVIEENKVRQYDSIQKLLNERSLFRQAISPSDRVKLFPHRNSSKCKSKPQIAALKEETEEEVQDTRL
Put plainly: Protocol 2: FRET membrane potential optical assay (VIPR), identification of correction compounds. The assay is classed as cell-based. Particulars: F508del CFTR modulator activity; compounds of Table 1; read-out: EC30. In short, it runs like this: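 FRET read-out (CC2-DMPE donor, DiSBAC2(3) voltage-sensitive acceptor) of membrane depolarization on VIPR II. Corrector candidates incubated 16 hrs at 37° C. with NIH3T3 cells expressing F508del; temperature correction at 27° C. as positive control; stimulation by 10 μM forskolin, 20 μM genistein, chloride-free gluconate bath.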
Turning to `C[C@@H]1CN(c2nc(-c3ccc4c(c3)OCCO4)ccc2C(=O)NS(=O)(=O)c2cccnc2N)C(C)(C)C1` [Compound 2522, N-[(2-amino-3-pyridyl)sulfonyl]-6-(2,3-dihydro-1,4-benzodioxin-6-yl)-2-[(4S)-2,2,4-trimethylpyrrolidin-1-yl]pyridine-3-carboxamide], the EC30 is less than 3000 nM.

Take `CCOc1cccc(-c2ccc(C(=O)NS(=O)(=O)N3CC[C@H](N)C3)c(N3C[C@@H](C)CC3(C)C)n2)c1` [Compound 2570, N-[(3S)-3-aminopyrrolidin-1-yl]sulfonyl-6-(3-ethoxyphenyl)-2-[(4S)-2,2,4-trimethylpyrrolidin-1-yl]pyridine-3-carboxamide]: the EC30 was 3000 to 10000 nM.

Turning to `CC1CN(c2ncccc2C(=O)NS(=O)(=O)c2cccc(OCc3ccccc3C(F)(F)F)n2)C(C)(C)C1` (stereo not drawn) [Compound 2261, N—[[6-[[2-(trifluoromethyl)phenyl]methoxy]-2-pyridyl]sulfonyl]-2-(2,2,4-trimethylpyrrolidin-1-yl)pyridine-3-carboxamide], the EC30 is less than 3000 nM.

Turning to `CC(C)COc1cccc(-c2ccc(C(=O)NS(=O)(=O)c3ccc[nH]c3=O)c(N3C[C@@H](C)CC3(C)C)n2)c1` [Compound 2267, 6-(3-isobutoxyphenyl)-N-[(2-oxo-1H-pyridin-3-yl)sulfonyl]-2-[(4S)-2,2,4-trimethylpyrrolidin-1-yl]pyridine-3-carboxamide], the EC30 was less than 3000 nM.

As to `CC(Oc1ncccc1C(=O)NS(=O)(=O)c1cccc(N)n1)c1ccccc1C(F)(F)F` (stereo not drawn) [Compound 2501], the EC30 was 3000 to 10000 nM.

For `CC(Oc1nc(N2C[C@@H](C)CC2(C)C)c(C(=O)NS(=O)(=O)c2cccc(N)n2)cc1F)c1ccncc1` (stereo partly drawn) [Compound 2212, N-[(6-amino-2-pyridyl)sulfonyl]-5-fluoro-6-[1-(4-pyridyl)ethoxy]-2-[(4S)-2,2,4-trimethylpyrrolidin-1-yl]pyridine-3-carboxamide], the EC30 fell in the range of 3000 to 10000 nM.

With `CCOc1ccc(-c2cnc(N3CC(C)CC3(C)C)c(C(=O)NS(=O)(=O)c3cccc(N)n3)c2)cn1` (stereo not drawn) [Compound 2384, N-[(6-amino-2-pyridyl)sulfonyl]-5-(6-ethoxy-3-pyridyl)-2-(2,2,4-trimethylpyrrolidin-1-yl)pyridine-3-carboxamide], the EC30 is less than 3000 nM.

The assay is the same for the next values; noted with them: Table 3; compounds of Table 1 as modulators of CFTR activity; protocol not stated.
For `Cc1cc(C)c(Oc2nc(C)ccc2C(=O)NS(=O)(=O)c2ccn[nH]2)c(C)c1` [Compound 670, 6-methyl-N-(1H-pyrazol-5-ylsulfonyl)-2-(2,4,6-trimethylphenoxy)pyridine-3-carboxamide], the EC30 entry is “++ (“++” means between 3 uM and 10 uM)”.

For the compound `Cc1ccc(-c2nc(C(C)(C)C)ccc2C(=O)NS(=O)(=O)c2cccc(N)c2)cc1F` [Compound 349, N-(3-aminophenyl)sulfonyl-6-tert-butyl-2-(3-fluoro-4-methyl-phenyl)pyridine-3-carboxamide], the EC30 result is “++ (“++” means between 3 uM and 10 uM)”.

Regarding `Cc1cccc(C)c1Cn1nc(-c2cccc(OC(F)(F)F)c2)cc1C(=O)NS(=O)(=O)c1ccccc1` [Compound 225, N-(benzenesulfonyl)-2-[(2,6-dimethylphenyl)methyl]-5-[3-(trifluoromethoxy)phenyl]pyrazole-3-carboxamide], the EC30 entry was “+++ (“+++” means <3 uM)”.

`Cc1cc(C)c(Oc2nc3c(C)cccc3cc2C(=O)NS(=O)(=O)c2cccc(N)n2)c(C)c1` [Compound 70, N-[(6-amino-2-pyridyl)sulfonyl]-8-methyl-2-(2,4,6-trimethylphenoxy)quinoline-3-carboxamide]: the EC30 entry is reported as “+++ (“+++” means <3 uM)”.

As for `Cc1cc(C)c(Oc2nc(-c3ccc(Cl)c(OCC(C)C)c3)ccc2C(=O)NS(=O)(=O)c2cccc(N)n2)c(C)c1` [Compound 238, N-[(6-amino-2-pyridyl)sulfonyl]-6-(4-chloro-3-isobutoxy-phenyl)-2-(2,4,6-trimethylphenoxy)pyridine-3-carboxamide], the EC30 result is recorded as “+++ (“+++” means <3 uM)”.

One may read the EC30 as the point of the concentration-response curve where the effect stands at 30%.

Source of the values: patent publication US10758534B2 (Vertex Pharmaceuticals Incorporated, priority 2014, dated 2020).
